One compound from patent EP4803511A1, “SMALL MOLECULE COMPOUND HAVING SULFONIC ACID OR SULFINIC ACID LACTONE STRUCTURE, COMPOSITION AND USE THEREOF” (Hangzhou Phecdamed Co., Ltd., priority 2023, dated 2025) can be followed below.

Molecules are shown by their SMILES.

Assay [1] concerns wild-type AB strain zebrafish. Nature of the assay: Zebrafish model, relieving anti-inflammatory efficacy (copper sulfate-induced, inflammatory cells at the neurothalamus). It is filed as in vivo. The settings on record: zebrafish 3 dpf, 40 µM copper sulfate model; effective concentrations 7.4, 22.2, and 66.6 µg/mL. The method, then: Experimental animal: Healthy wild-type AB strain zebrafish at 3 dpf (days post fertilization)
Evaluation of the relieving stinging efficacy: Healthy AB strain zebrafish were taken and randomly divided into four groups: blank control, modeling group, positive control, and sample group. […] After continuous treatment for a certain period, the zebrafish's behavioral trajectories were recorded using a behavior analyzer, and the changes in total movement distance and speed were statistically analyzed, the results are shown in FIGS. 2-4. […]
Evaluation of the relieving anti-inflammatory efficacy: As described above, the modeling drug was 40 µM copper sulfate, the positive control drug was 200 µM asiaticoside, and the concentrations of I-8 were 66.6, 22.2, and 7.4 µg/mL respectively. After treating zebrafish as described above, inflammatory cells in their bodies were stained, the number of inflammatory cells at the neurothalamus was counted, and statistical analysis was performed.

For a further assay, the system named is IL-8. Kind of assay: IL-8 gene expression in HaCaT after UVB radiation (q-PCR). The following applies: UVB 80 mJ/cm^2, 24 hrs, dose-dependent. The format is cell-based, human. The text has this: (§1) In the following Test Examples 6-1 and 6-2, using immortalized keratinocytes (HaCaT) and UVB to establish a model, after the compound to be test was applied to HaCaT, the expression levels of TNF-α, IL-8, IL-1β and EP2 were detected; using immortalized keratinocytes (HaCaT) and capsaicin to establish a model, after the compound to be test was applied to HaCaT, the expression level of TRPV1 was detected, so as to evaluate the soothing effect of the test substance from multiple dimensions.
• 1) Cell inoculation: HaCaT cells were inoculated into a 6-well plate at 6×10^5/well, cultured in an incubator (37°C, 5% CO2) for 12 hrs, and a normal control group (0 mJ/cm^2 + vehicle control), a model control group (80 mJ/cm^2 + vehicle control), a low concentration group (80 mJ/cm^2 + low concentration compound), a medium concentration group (80 mJ/cm^2 + medium concentration compound), and a high concentration group (80 mJ/cm^2 + high concentration compounds) were respectively provided. • 2) UVB modeling: The HaCaT cells were washed 3 times with D'Hanks before UVB radiation, 1 mL of D'Hanks was added into the wells, to make the cells to be immersed, and the control group was coated with tinfoil and placed in the dark. […]

A further assay relates to TRPV1. Kind of assay: TRPV1 gene expression in HaCaT after capsaicin stimulation (q-PCR). The settings on record: 15 µM capsaicin, dose-dependent. The format is cell-based, human.
Text: as §1
• 1) Cell inoculation: HaCaT cells were inoculated into a 6-well plate at 6 × 10^5/well, cultured in an incubator (37 °C, 5% CO2) for 12 hrs, and a normal control group (0 µM capsaicin + vehicle control), a model control group […] concentration group (15 µM capsaicin + low concentration compound), a medium concentration group (15 µM capsaicin + medium concentration compound), and a high concentration group (15 µM capsaicin + high concentration compound) were respectively provided. • 2) Induction and administration: The culture solution in the 6-well plate was discarded and the administration operation was carried out. The culture solution containing the test substance and the capsaicin stock solution was added according to the above drug group, and 1 mL was added to each well. […]

A further assay deals with COL3A1. Kind of assay: Collagen III gene expression in HaCaT human immortalized keratinocytes. The settings on record: 24 hrs, dose-dependent. It is filed as cell-based. The text has this:
Skin fragility is partly attributed to changes in hemidesmosomes and the expression downregulation of various collagen proteins (Collagen I, III, IV, VII) or laminins (such as LN-5) at the dermal-epidermal junction. LN-5 has been proven to be a component of anchoring fibers in the basement membrane of the skin, cornea, conjunctiva, and other tissues. LN-5 participates in cell-cell interactions through the mediation of integrins and proteoglycans, thereby playing a crucial role in cell adhesion, growth, migration, and differentiation. The appearance of wrinkles is closely related to the normal synthesis and expression of collagen and laminins. Therefore, the increase of the above collagen content and LN-5 can achieve a certain role in resisting wrinkles, and plays an important role in the aging process of the skin. Therefore, the anti-wrinkle effect of the compound to be tested was evaluated by detecting the level of Collage I protein of […] by ELISA, and detecting the transcription levels of epidermal cells (keratinocytes) III, IV, VII and LN -5 by Real-Time PCR. The following Test Examples 8-1 and 8-2 evaluated the anti-wrinkle efficacy of compounds using HaCaT human immortalized keratinocytes and HSF human skin fibroblasts. […]

In the case of `O=S1(=O)Oc2cc(O)ccc2-c2ccc(O)cc21` [Compound I-8], the relieving anti-inflammatory efficacy entry in assay [1] is on record as “certain relieving anti-inflammatory efficacy”. In addition, the “expression level of IL-8” value in the assay on IL-8 is recorded as “downregulating”. Further, the “expression level of TRPV1” value in the assay with TRPV1 was “downregulating”. For the same compound, the COL341 gene expression entry in the assay on COL3A1 is listed as “upregulate”.
